{"source": "patent US8435752B2", "about": "“Gene polymorphisms predictive for dual TKI therapy” (University of Southern California, priority 2007, dated 2013)", "test_system": "advanced or metastatic gastric cancer patients", "settings": "for median OS: Experiment No. 1, p=0.07; for OS / response rates: Experiment No. 2; for OS: p=0.04; for response rates: p<0.01", "note": "Read-outs that look alike come from different tables or passages of the source.", "data": [{"smiles": "CS(=O)(=O)CCNCc1ccc(-c2ccc3ncnc(Nc4ccc(OCc5cccc(F)c5)c(Cl)c4)c3c2)o1", "note": "[lapatinib, Lapatinib]", "values": [{"measurement": "median OS", "setting": "A/A genotype of IL-8 T251A polymorphism, blood samples from 40 patients", "result": 10, "unit": "months"}, {"measurement": "median OS", "setting": "first listed of the other 2 genotypes of IL-8 T251A", "result": 3, "unit": "months"}, {"measurement": "median OS", "setting": "second listed of the other 2 genotypes of IL-8 T251A", "result": 3, "unit": "months"}, {"measurement": "OS", "setting": "IL-8 T251A A/A, blood samples from 42 patients", "result": 10, "unit": "months"}, {"measurement": "OS", "setting": "IL-8 T251A T/A", "result": 5, "unit": "months"}, {"measurement": "OS", "setting": "IL-8 T251A T/T", "result": 3, "unit": "months"}, {"measurement": "response rates", "setting": "patients with A allele of IL-8 T251A", "result": "better response rates"}, {"measurement": "response rates", "setting": "patients with T allele of VEGF C936T", "result": "better response rates"}, {"measurement": "median overall survival (OS)", "setting": "comparison group to higher HER2 gene expression (lower HER2), p=0.005", "result": 3, "unit": "months"}, {"measurement": "median overall survival (OS)", "setting": "comparison group to lower IL-8 gene expression (higher IL-8), p=0.03", "result": 3, "unit": "months"}, {"measurement": "median overall survival (OS)", "setting": "patients with higher intratumoral HER2 gene expression, p=0.005 vs lower", "result": 6, "unit": "months"}, {"measurement": "median overall survival (OS)", "setting": "patients with lower intratumoral IL-8 gene expression, p=0.03 vs higher", "result": 6, "unit": "months"}]}]}
